Literature values as cited in patent US20130344180A1, “WEIGHT LOSS AND SATIATION COMPOSITION” (YL HOLDINGS, INC., priority 2012, published 2013).
One block for each compound: values may come before it.

Legend:
[1] = tested on: fat cells in white adipose tissue; conditions: by increasing the expression of thermogenin
cellular metabolism = conditions: by increasing cellular metabolism
[2] = mice and rats
[3] = tested on: E1, E2, and E3 isozymes of retinaldehyde dehydrogenase (Raldh)
prostate gland tumors = conditions: various strains of rats
[4] = mice and rats; remark: listed apart in the source
[5] = in vivo
PPARγ = PPARγ (Homo sapiens, UniProt P37231)
PPARγ, sequence (P37231 whole entry, species assumed): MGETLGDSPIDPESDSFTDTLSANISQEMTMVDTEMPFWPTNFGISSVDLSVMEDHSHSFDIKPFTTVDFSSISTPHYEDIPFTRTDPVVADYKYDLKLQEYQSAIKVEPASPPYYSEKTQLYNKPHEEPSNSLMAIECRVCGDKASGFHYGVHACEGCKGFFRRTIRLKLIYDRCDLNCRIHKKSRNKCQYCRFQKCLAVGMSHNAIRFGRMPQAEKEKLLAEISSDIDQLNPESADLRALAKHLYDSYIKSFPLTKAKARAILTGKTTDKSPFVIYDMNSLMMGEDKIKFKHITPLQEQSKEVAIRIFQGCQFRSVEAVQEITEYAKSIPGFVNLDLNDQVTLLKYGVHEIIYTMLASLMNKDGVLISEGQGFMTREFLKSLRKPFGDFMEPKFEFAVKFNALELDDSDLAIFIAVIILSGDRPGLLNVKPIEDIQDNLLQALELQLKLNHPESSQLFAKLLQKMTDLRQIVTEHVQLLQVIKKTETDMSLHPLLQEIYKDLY

[6] = tested on: adipocyte differentiation

Compound: Fucoxanthin
fat burning within fat cells [1]: promote fat burning

inhibition of E1, E2, and E3 isozymes of retinaldehyde dehydrogenase (Raldh) [3]: competitively inhibits
Compound: CC(C)=CCCC(C)=CC=O [Citral, 3,7-dimethyl-2,6-octadienal]
thermogenic response (cellular metabolism): provide thermogenic response
toxicity [2]: non-toxic
effect against prostate gland tumors (prostate gland tumors): effective
carcinogenic potential [4]: does not possess carcinogenic potential

ligand of PPARγ (PPARγ): acts as a ligand
Compound: CCCC\C=C/C=C/C=C\CCCCCCCC(=O)O [punicic acid]
high-fat-diet induced obesity and insulin resistance [5]: suppression
adipocyte differentiation [6]: suppression
